Results as given in patent US12240838B2, “Inhibiting agents for Bruton's tyrosine kinase” (BIOGEN MA INC., priority 2019, dated 2025).

Legend:
[1] = biological target: T1, BTK (Homo sapiens (Human), UniProt Q06187); experiment: In Vitro BTK Kinase Assay: BTK-POLYGAT-LS ASSAY; type: biochemical; details: ATP 10 μM, polyGAT 100 nM, BTK 0.25 nM, 30 minutes
Procedure, shortened: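 BTK (0.25 nM final) with 10 μM ATP and 100 nM polyGAT in pH 7.5 Tris buffer with MgCl2, DTT, Triton X-100 and casein; compound titrated 4-fold. Reaction 30 min, stopped with EDTA. Phosphorylation detected by TR-FRET with Tb-PY20 antibody after 45 min at room temperature; IC50 reported.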

[2] = biological target: T1, BTK; experiment: In Vitro PD Assay in Human Whole Blood (pBTK assay); type: cell-based; details: 37° C. for 30 min, 50% inhibition of ECL signal
Procedure, shortened: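 Phospho-BTK was measured by total-BTK capture and phosphotyrosine detection in lysates of human heparinized whole blood. Vehicle samples lysed with or without phosphatase inhibitors defined the high and low controls.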

T1 sequence (Q06187 whole entry): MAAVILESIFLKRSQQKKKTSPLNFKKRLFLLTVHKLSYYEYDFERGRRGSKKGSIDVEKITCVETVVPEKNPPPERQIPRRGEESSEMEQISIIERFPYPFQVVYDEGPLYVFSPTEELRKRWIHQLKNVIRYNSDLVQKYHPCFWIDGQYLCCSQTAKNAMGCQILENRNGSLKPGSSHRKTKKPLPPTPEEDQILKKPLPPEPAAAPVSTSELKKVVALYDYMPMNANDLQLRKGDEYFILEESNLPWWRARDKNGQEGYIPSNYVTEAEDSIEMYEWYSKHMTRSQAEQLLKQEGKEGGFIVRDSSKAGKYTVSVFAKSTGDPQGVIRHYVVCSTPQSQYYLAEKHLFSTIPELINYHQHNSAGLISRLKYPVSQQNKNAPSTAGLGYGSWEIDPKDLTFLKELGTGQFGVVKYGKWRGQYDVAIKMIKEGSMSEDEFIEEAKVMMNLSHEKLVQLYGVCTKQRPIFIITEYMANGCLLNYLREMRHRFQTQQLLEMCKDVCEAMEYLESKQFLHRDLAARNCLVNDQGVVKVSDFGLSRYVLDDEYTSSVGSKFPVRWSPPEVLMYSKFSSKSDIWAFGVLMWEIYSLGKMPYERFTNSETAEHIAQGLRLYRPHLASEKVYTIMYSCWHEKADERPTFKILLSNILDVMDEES

Row | Compound | IC50 [1] | IC50 [2]
1 | Cc1cc(-c2cc(NC(=O)C3CC3)ncc2F)c(F)cc1CNC(=O)c1noc(C(C)(C)C)n1 [Compound 103, 5-(tert-butyl)-N-(4-(2-(cyclopropanecarboxamido)5-fluoropyridin-4-yl)-5-fluoro-2-methylbenzyl)-1,2,4-oxadiazole-3-carboxamide] | ≤ 1 nM | 100 to 500 nM
2 | CC(C)(C)c1nc(C(=O)NC2CCCOc3cc(-c4ccnc(NC(=O)C5CC5)c4)ccc32)no1 (stereo not drawn) [Compound 65, 5-(tert-butyl)-N-(8-(2-(cyclopropanecarboxamido)pyridin-4-yl)-2,3,4,5-tetrahydrobenzo[b]oxepin-5-yl)-1,2,4-oxadiazole-3-carboxamide] | ≤ 1 nM | 100 to 500 nM
3 | CC(C)(C)c1nc(C(=O)NCc2ccc(-c3ccnc(NC(=O)C4CC4)c3)cc2C(C)(C)C)no1 [Compound 72] | 1 to 10 nM | > 10000 nM
4 | C[C@@H](NC(=O)c1noc(C(C)(C)C)n1)c1ccc(-c2ccnc(NC(=O)C3CC3)c2)cc1OC(F)(F)F [Compound 83, (R)-5-(tert-butyl)-N-(1-(4-(2-(cyclopropanecarboxamido)pyridin-4-yl)-2-(trifluoromethoxy)phenyl)ethyl)-1,2,4-oxadiazole-3-carboxamide] | 1 to 10 nM | 500 to 10000 nM
5 | Cc1cc(-c2ccnc(NC(=O)[C@@H]3C[C@H]3C)c2)ccc1CNC(=O)c1noc(C(C)(C)C)n1 [Compound 6, 5-(tert-butyl)-N-(2-methyl-4-(2-((1R,2R)-2-methylcyclopropane-1-carboxamido)pyridin-4-yl)benzyl)-1,2,4-oxadiazole-3-carboxamide] | ≤ 1 nM | ≤ 100 nM
6 | Cc1c(CNC(=O)c2nn(C(C)(C)C)cc2F)ccc(-c2ccnc(NC(=O)C3CC3)c2)c1F [Compound 31, 1-(tert-butyl)-N-(4-(2-(cyclopropanecarboxamido)pyridin-4-yl)-3-fluoro-2-methylbenzyl)-4-fluoro-1H-pyrazole-3-carboxamide] | ≤ 1 nM | 500 to 10000 nM
7 | Cc1cc(-c2ccnc(NC(=O)C3CC3)c2F)ccc1CNC(=O)c1noc(C(C)(C)C)n1 [Compound 44, 5-(tert-butyl)-N-(4-(2-(cyclopropanecarboxamido)-3-fluoropyridin-4-yl)-2-methylbenzyl)-1,2,4-oxadiazole-3-carboxamide] | 1 to 10 nM | 500 to 10000 nM
8 | CC(C)(C)c1nc(C(=O)N[C@@H]2CCCCc3cc(-c4ccnc(NC(=O)C5CC5)c4)ccc32)co1 [Compound 68, (R)-2-(tert-butyl)-N-(2-(2-(cyclopropanecarboxamido)pyridin-4-yl)-6,7,8,9-tetrahydro-5H-benzo[7]annulen-5-yl)oxazole-4-carboxamide] | ≤ 1 nM | 500 to 10000 nM
9 | Cc1cc(-c2cc(NC(=O)C3CC3)ncc2F)ccc1CNC(=O)c1noc(C(C)(C)C)n1 [Compound 106, 5-(tert-butyl)-N-(4-(2-(cyclopropanecarboxamido)5-fluoropyridin-4-yl)-2-methylbenzyl)-1,2,4-oxadiazole-3-carboxamide] | ≤ 1 nM | 500 to 10000 nM
